From patent US8227207B2, “Bioactive peptides derived from the proteins of egg white by means of enzymatic hydrolysis” (Consejo Superior de Investigaciones Cientifcas, priority 2004, dated 2012)
“Also recorded” adds a separate entry of the source. Residues, ends and D or L forms follow the SMILES beside them.

Assays:
[1] = Antioxidant activity, ABTS radical cation decolorization assay (TEAC)
Source text: In order to measure the antioxidant activity, the method developed by R. Re, N. Pellegrini, A. Proteggente, A. Pannala, M. Yang and C. Rice-Evans (Antioxidant activity applying an improved ABTS radical cation decolorization assay, Free Radical Biological Medicine, 1999, 26: 1231-1237) is used. The method is based on the disappearance of the radical ABTS^•+ (2,2-azinobis(3-ethylbenzothiazoline-6-sulphonic) acid) owing to the reducing action of different samples with antioxidant activity. […] The antioxidant activity is detected by the fall in the 734 nm absorbency time.
In order to generate the radical […], the compound ABTS (Sigma), dissolved in water at a concentration of 7 mM, is brought into contact with 2.45 mM potassium persulphate in a ratio of 1:2 for 24 hours in the absence of light. After 24 hours, the absorbency at 734 nm is adjusted to a value of 0.70 ±0.02 with 5 mM of phosphate buffer salt (PBS), 138 mM of NaCl, pH =7.4. In a standard experiment, 1 ml of this solution is added to 10 μl of the sample (1.5 mM) dissolved in 0.02 M sodium phosphate buffer, pH =6.5 The experiment is conducted in triplicate, with each sample being incubated with the radical ABTS^•+ for 10 minutes at 37° C., with readings of the absorbency at 734 nm being taken at 1, 6 and 10 minutes. Used as blank is 0.02 M sodium phosphate buffer, pH =6.5 and at the same time as the incubation of the samples is carried out, the radical […] is incubated without any antioxidant agent (control). The antioxidant activity of each sample is calculated with respect to the absorbency at 734 nm shown by the control. The antioxidant activity of the sample is expressed in relation to the antioxidant activity of TROLOX® (6-hydroxy-2,5,7,8-tetramethylchroman-2-carboxylic acid) (Sigma), analogous to vitamin E, by means of a TEAC value (Trolox equivalent antioxidant capacity) at a certain time.
Different ways of calculating the TEAC value have been developed. We use the method described by F. W. P. C. van Overlveld, G. R. M. M. Haenen, J. Rhemrev, J. P. W. Vermeiden and A. Bast (Tyrosine as important contributor to the antioxidant capacity of seminal plasma, Chemical and Biological Interactions, 2000, 127: 151-161), which is valid for calculating the TEAC value of a pure compound, which provokes a decrease in the absorbency which linearly increases as the concentration is increased. In this case, it would only be necessary to calculate a certain concentration of a compound in order to be able to calculate its TEAC value.
The value 0.2845 represents the decrease in absorbency caused by 1 mM of 6-hydroxy-2,5,7,8-tetramethylchroman-2-carboxylic acid.

[2] = system: spontaneously hypertensive rats (SHR); experiment: Antihypertensive activity: systolic arterial pressure (tail cuff) in spontaneously hypertensive rats; assay type: in vivo, rat
Experimental: (§1) The effect is studied of various identified peptides and of some products containing them (for example egg white hydrolysed with pepsin for 3 hours and the fraction of it less than 3000 Da) on the arterial pressure of spontaneously hypertensive rats (SHR) and Wistar-Kyoto rats (WKY) which are the normotense controls for the SHR.
(§2) This study is conducted with SHR (10) and WKY of 17-24 weeks old and weight between 300 and 350 g, coming from Charles River Laboratories España, S. A. The rats are kept in cages of five by five and maintained at a stable temperature of 25° C. with light-dark cycles of 12 hours, ingesting freely available water and food. In order to carry out the measurement of systolic arterial pressure (SAP) “tail cuff” equipment is used (Le5001, Letica) which automatically provides a digital value of the SAP and records and facilitates the cardiac frequency of the animals. Various measurements are made and the average of all of them is obtained in order to achieve a reliable value of the SAP. Before positioning the cuff and transducer in the tail of the rats, the rats are exposed to a temperature of close to 30° C. in order to facilitate dilation of the caudal artery. Also, in order to ensure the reliability of the measurement, the animals are made to get used to the procedure for two weeks prior to conducting each assay in question.
(§3) The administration of the products to be assayed is done by means of an intragastric probe in a time margin of between 9 and 10 o'clock in the morning. The SHR used for the study had SAP values of between 230 and 280 mm Hg. The WKY used for the study at that moment had SAP values of between 160 and 200 mm Hg. Measurements of the SAP were taken from the animals periodically, every 2 hours, up to 8 hours post-administration of the products to be assayed; in addition, a SAP measurement was taken 24 hours after the administration of those products. As negative control (in order to establish the circadian variation of the SAP in probed rats) the measurements of the SAP obtained in rats which had been administered 1 ml of water by means of intragastric probe were used. As positive control, the measurements of the SAP obtained in rats which had been administered 50 mg/kg of Captopril (prototype ACEI drug) by means of intragastric probe were used. This dose of Captopril was administered to each rat in a volume of 1 ml. In order to establish the effect of the unhydrolysed egg white on the arterial pressure of the animals, similar assays to those described above were conducted, in which the animals were treated by the same procedure with 200 mg/kg of previously freeze-dried egg white (reference).
The results obtained are grouped and the mean±the standard error of measurement (SEM) is obtained for a minimum of 9 homogenous assays. The data of the treated animals are always compared with the data deemed to be a negative control. In order to compare them and obtain the statistical significance, Student's t-test for unpaired data is used and the difference for values of p<0.05 is considered significant.

Wistar-Kyoto rats (WKY) = experiment: Systolic arterial pressure (tail cuff) in normotense Wistar-Kyoto rats; assay type: in vivo, rat; conditions: highest dose used, intragastric probe
Experimental: as §1, §2, §3
The results obtained are grouped and the mean±the standard error of measurement (SEM) is obtained for a minimum of 9 homogenous assays. […]

## CC[C@H](C)[C@H](NC(=O)[C@@H]1CCCN1C(=O)[C@H](Cc1ccc(O)cc1)NC(=O)[C@H](CCCNC(=N)N)NC(=O)[C@H](CCC(=O)O)NC(=O)[C@H](CCC(=O)O)NC(=O)[C@H](C)NC(=O)[C@@H](N)Cc1ccc(O)cc1)C(=O)N[C@@H](CC(C)C)C(=O)O [SEQ. ID. N^o 6] (H-YAEERYPIL-OH; N-terminus and C-terminus assumed)
[1]
  antioxidant activity towards free radicals (in words): possesses antioxidant activity
[1]; 1 mg versus 1 mg
  times more antioxidant activity than 6-hydroxy-2,5,7,8-tetramethylchroman-2-carboxylic acid: 1.3 times
[1]; 1 minute
  TEAC (Trolox equivalent antioxidant capacity): 0.8
[1]; 6 minutes
  TEAC (Trolox equivalent antioxidant capacity): 1.2
[1]; 10 minutes
  TEAC (Trolox equivalent antioxidant capacity): 1.3
[2]; intragastric probe
  time of maximum drop in SAP after administration: 6 h
[2]; single administration by intragastric probe
  drop in systolic arterial pressure (SAP) / anti-hypertensive activity (in words): possess anti-hypertensive activity; also recorded: significant dose-dependent drop in the SAP; also recorded: clear and pronounced anti-hypertensive effect; also recorded: display anti-hypertensive activity
Wistar-Kyoto rats (WKY)
  change in SAP in normotense rats (in words): not in normotensed Wistar-Kyoto rats; also recorded: none of these compounds modifies the SAP
